The values that follow are results of earlier work, collected in patent US10561697B2, “Compositions based on saffron for the prevention and/or treatment of degenerative eye disorders” (Hortus Novus SRL, priority 2014, dated 2020).

Data set [1] relates to rats affected by the P23H mutation in the rhodopsin gene. As to conditions: 100 mg/kg.
For data set [2], the system named is rats exposed to light. As to conditions: diet added with 0.2% of curcumin.

As for `COc1cc(/C=C/C(=O)CC(=O)/C=C/c2ccc(O)c(OC)c2)ccc1O` [curcumin], the “formation of rhodopsin aggregates” value in data set [1] is listed as “active in inhibiting the formation of rhodopsin aggregates”. For the same compound, the “morphology of the retina, photoreceptors preservation” value in data set [1] (transgenic rats) is reported as “improvement in the morphology of the retina”. In addition, in data set [2], the “onset of retinal oxidative and inflammatory stress” value is “reduction in the onset of retinal oxidative and inflammatory stress”.
